Read-outs that look alike come from different tables or passages of the source.

The record followed here is patent US20240368153A1, “Aminopyridine-based MTA-Cooperative PRMT5 Inhibitors” (Mirati Therapeutics, Inc., priority 2021, published 2024).

In test [1] the target is recombinant human dual expressed Avi PRMT5/His-MEP50 protein (Homo sapiens (Human), UniProt O14744). Description: HTRF binding assay in presence of MTA. Conditions: 30 μM MTA. How it is done:
The PRMT5 binding activity of compounds of the present invention was determined using an HTRF binding assay or SPR assay.
A recombinant human dual expressed Avi PRMT5/His-MEP50) protein (corresponding to amino acids for PRMT5 2-637, and 2-342 for MEP50 expressed in baculovirus) was incubated with target fragments in final buffer (25 mM ADA pH 7.2, 30 μM MTA, 1 mM TCEP, 50 mM NaCl, 0.002% Tween, 5 nM proprietary Tracer binding compound prepared in-house), overnight at 2-8° C. After overnight incubation the binding is monitored after the addition of 0.5 nM Anti-His-Tb (Cisbio) after 1 hr incubation at RT (˜20-24 hrs total binding time). The HTRF signal was measured using a Clariostar reader (BMG) excitation filter (Ex Tr), dichroic filter (LP TP) and emission filters (F 665-10 and F 620-10) manufacturer's instructions. The HTRF ratio was calculated using the formula: [emission 665/emission 620]*10000.
A general note: In TR-FRET formats the signal depends on donor and acceptor labels being close together.

For test [2], the target named is PRMT5•MTA (biotinylated PRMT5-MEP50) (Homo sapiens (Human), UniProt O14744). The experiment in a line: SPR binding assay, MTA running buffer. The following applies: 20 μM MTA running buffer. The procedure:
(§1) SPR screening was performed in MTA running buffer (25 mM Bicine pH 7.6, 100 mM NaCl, 1 mM TCEP, 20 μM MTA, 0.05% Tween-20 and 2% DMSO). The biotinylated PRMT5-MEP50 surface was equilibrated with MTA running buffer for 12 hours prior to the start. […] Subsequently, compound titration was repeated in SAM-running buffer (25 mM Bicine pH 7.6, 100 mM NaCl, 1 mM TCEP, 20 μM SAM, 0.05% Tween-20, and 2% DMSO). […] After double referencing, the steady-state response was extracted for each fragment concentration and was fit to the Langmuir isotherm equation to determine the equilibrium dissociation constant (KD).

The target of test [3] is PRMT5•SAM (biotinylated PRMT5-MEP50) (Homo sapiens (Human), UniProt O14744). The experiment in a line: SPR binding assay, SAM running buffer. The following applies: 20 μM SAM running buffer. The procedure:
as §1

Another test has as its target PRMT5/MEP50 complex (Homo sapiens (Human), UniProt O14744). The experiment in a line: PRMT5:MEP50 FlashPlate Assay. The test is classed as biochemical. The procedure: The PRMT5 inhibitory activity of compounds of the present invention was determined using a PRMT5:MEP50 FlashPlate Assay (Reaction Biology Corporation).
The assay uses purified human, PRMT5 enzyme to convert S-adenosyl-L-[methyl-^3H]methionine plus histone H4 L-arginine to S-adenosyl-L-homocysteine plus histone H4 [methyl-^3H]-L-arginine. The assay was carried out using Streptavidin-coated FlashPlates (Perkin Elmer), which contained a scintillant embedded in the plastic of the plate. The histone H4 peptide substrate was conjugated with biotin, which binds to the streptavidin-coated well of the plate, placing the H4 peptide in close proximity to the side well and the scintillant. The transfer of the tritiated methyl group from S-adenosyl-L-[methyl-^3H]methionine to the bound histone H4 peptide generated a radiolabeled histone H4, which was quantitated by measuring in a scintillation counter to determine the activity of PRMT5 enzyme in the presence and absence of compound. […] Briefly, compounds of the present invention were solubilized in 100% DMSO at a highest concentration of 10 mM. For IC, determinations, the initial starting concentration for the serial dilutions of each compound was 50 μM. Control samples lacking compound, PRMT5/MEP50 complex or various reaction components also were prepared and processed in parallel with compound test samples. SAH was used as a positive control for assay validation. To measure PRMT5 inhibitory activity, 3 nM PRMT5/MEP50 complex (Reaction Biology Corporation) was preincubated with test compound in assay buffer containing 40 nM histone H4 peptide (amino acids 1-15)-Biotin conjugate for 20 min at room temperature. The enzymatic reaction was initiated by adding 1 μM tritiated S-adenosyl methionine (final concentration) and the reaction is allowed to proceed for 20 min. The reaction was stopped and the amount of bound, tritiated H4 peptide in each sample was determined using a scintillation counter. The IC50 value for each compound was calculated from each 10-point dose-response curve for samples plus and minus MTA using GraphPad Prism software and the results for exemplary compounds of Formula (I) is shown in Table 9a.

The mark [4] stands for this setting: histone H4 peptide, absence of MTA, read-out: IC50.
The mark [5] stands for this setting: read-out: IC50 + 2 μM MTA, histone H4 peptide, presence of 2 μM MTA.

Sequence of recombinant human dual expressed Avi PRMT5/His-MEP50 protein (O14744 2-637): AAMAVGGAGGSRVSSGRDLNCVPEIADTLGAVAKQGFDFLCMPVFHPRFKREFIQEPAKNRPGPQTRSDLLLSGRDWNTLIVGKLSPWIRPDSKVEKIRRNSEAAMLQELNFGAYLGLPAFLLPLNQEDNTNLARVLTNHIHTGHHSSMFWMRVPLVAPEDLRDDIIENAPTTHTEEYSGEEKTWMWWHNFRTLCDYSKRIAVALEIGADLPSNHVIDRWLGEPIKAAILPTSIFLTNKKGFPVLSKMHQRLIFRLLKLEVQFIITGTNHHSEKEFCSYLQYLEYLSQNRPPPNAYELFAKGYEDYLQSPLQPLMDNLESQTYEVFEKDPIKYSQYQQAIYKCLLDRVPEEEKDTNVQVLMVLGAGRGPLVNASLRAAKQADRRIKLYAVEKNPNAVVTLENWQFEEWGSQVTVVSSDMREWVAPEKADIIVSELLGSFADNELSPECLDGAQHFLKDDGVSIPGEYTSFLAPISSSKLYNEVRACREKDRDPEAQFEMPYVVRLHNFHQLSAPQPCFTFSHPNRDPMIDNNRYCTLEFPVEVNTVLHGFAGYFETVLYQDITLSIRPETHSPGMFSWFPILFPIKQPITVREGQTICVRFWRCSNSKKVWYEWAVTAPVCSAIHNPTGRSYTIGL
Sequence of recombinant human dual expressed Avi PRMT5/His-MEP50 protein (Q9BQA1 2-342 partner): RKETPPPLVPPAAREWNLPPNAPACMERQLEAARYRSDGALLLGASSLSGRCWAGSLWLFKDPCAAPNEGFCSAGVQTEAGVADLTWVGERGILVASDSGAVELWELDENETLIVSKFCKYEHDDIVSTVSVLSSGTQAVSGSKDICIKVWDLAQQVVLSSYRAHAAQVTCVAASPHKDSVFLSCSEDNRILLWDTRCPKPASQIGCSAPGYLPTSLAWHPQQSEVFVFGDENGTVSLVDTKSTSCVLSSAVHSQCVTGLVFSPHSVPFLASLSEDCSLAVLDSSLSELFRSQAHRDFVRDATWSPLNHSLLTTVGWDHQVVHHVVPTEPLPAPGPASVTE
Sequence of PRMT5•SAM (biotinylated PRMT5-MEP50) (O14744 whole entry): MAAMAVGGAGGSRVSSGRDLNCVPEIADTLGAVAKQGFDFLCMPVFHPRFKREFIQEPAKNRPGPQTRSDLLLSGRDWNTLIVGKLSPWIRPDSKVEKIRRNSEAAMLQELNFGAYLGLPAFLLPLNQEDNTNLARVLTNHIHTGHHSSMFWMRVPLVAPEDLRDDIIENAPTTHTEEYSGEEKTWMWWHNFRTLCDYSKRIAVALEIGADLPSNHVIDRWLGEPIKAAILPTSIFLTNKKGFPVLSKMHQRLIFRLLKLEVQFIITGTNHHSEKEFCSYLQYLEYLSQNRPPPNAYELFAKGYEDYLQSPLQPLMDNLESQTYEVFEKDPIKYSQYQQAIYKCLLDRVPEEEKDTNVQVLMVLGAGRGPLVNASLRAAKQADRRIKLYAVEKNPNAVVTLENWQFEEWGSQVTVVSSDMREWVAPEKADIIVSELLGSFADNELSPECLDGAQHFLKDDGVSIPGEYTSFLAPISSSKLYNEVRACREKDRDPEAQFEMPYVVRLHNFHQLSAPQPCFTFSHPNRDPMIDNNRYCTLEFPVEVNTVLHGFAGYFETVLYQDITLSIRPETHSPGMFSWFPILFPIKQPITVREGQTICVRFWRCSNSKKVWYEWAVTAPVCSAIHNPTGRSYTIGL
Sequence of PRMT5•SAM (biotinylated PRMT5-MEP50) (Q9BQA1 whole entry partner): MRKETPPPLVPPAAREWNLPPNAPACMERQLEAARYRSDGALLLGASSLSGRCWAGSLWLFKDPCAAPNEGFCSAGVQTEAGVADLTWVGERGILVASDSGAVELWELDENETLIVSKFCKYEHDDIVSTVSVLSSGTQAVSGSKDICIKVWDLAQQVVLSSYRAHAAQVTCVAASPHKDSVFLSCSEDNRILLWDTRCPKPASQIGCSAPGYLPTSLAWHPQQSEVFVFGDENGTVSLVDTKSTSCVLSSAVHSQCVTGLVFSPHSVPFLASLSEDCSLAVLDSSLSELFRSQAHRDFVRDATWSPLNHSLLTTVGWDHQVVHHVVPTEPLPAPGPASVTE
Sequence of PRMT5•MTA (biotinylated PRMT5-MEP50) (O14744 whole entry, the tested form may be a part): as the sequence (O14744 whole entry) above
Sequence of PRMT5•MTA (biotinylated PRMT5-MEP50) (Q9BQA1 whole entry partner, the tested form may be a part): as the sequence (Q9BQA1 whole entry partner) above
Sequence of PRMT5/MEP50 complex (O14744 whole entry): as the sequence (O14744 whole entry) above
Sequence of PRMT5/MEP50 complex (Q9BQA1 whole entry partner): as the sequence (Q9BQA1 whole entry partner) above

What is called IC50 is the midpoint of a concentration-inhibition curve. The Kd is a measure of binding affinity in units of concentration. High values mean lower affinity, low ones higher affinity. For the compound `Cc1cc(N)nc2cc(-c3cnsc3)cnc12` [Example 1-8, 7-(isothiazol-4-yl)-4-methyl-1,5-naphthyridin-2-amine], the values for the IC50 (in test [1]; on PRMT5/MEP50 complex (setting [4]); at PRMT5/MEP50 complex (setting [5])) were 11.4 µM, greater than 300 µM and greater than 300 µM, respectively. The values for the Kd in test [2] and in test [3] were 7.5 µM and 19.1 µM, respectively.
With `Cc1cc2c(cc(CNC(=O)c3ccccc3)n2C2CC2)nc1N` [Example 15-1, N-[(5-amino-1-cyclopropyl-6-methyl-pyrrolo[3,2-b]pyridin-2-yl)methyl]benzamide], the values for the IC50 (in test [1]; at PRMT5/MEP50 complex (setting [4]); on PRMT5/MEP50 complex (setting [5])) were 0.362 µM, greater than 300 µM and 44.9 µM, respectively. The Kd in test [2] is 0.066 µM.
Regarding `CC(=O)c1c(CNC(=O)c2ccccc2)[nH]c2cc(C)c(N)nc12` [Example 15-5, N-((3-acetyl-5-amino-6-methyl-1H-pyrrolo[3,2-b]pyridin-2-yl)methyl)benzamide], in test [1], the IC50 was no less than 100 µM. Further, the Kd in test [2] was 774 µM; in test [3] it was 631 µM.
On to `Cc1cc2[nH]c(N3CC(=O)N(C)C3=O)cc2nc1N` [Example 13-4, 1-(5-amino-6-methyl-1H-pyrrolo[3,2-b]pyridin-2-yl)-3-methyl-imidazolidine-2,4-dione], for which the IC50 in test [1] is 50.6 µM; at PRMT5/MEP50 complex (setting [4]), greater than 300 µM; at PRMT5/MEP50 complex (setting [5]) it was greater than 300 µM. The results for the Kd in test [2] and in test [3] were 10.7 µM and 30.9 µM, respectively.
`Cc1cc(N)nc2cc(CNC(=O)c3cc(NC4CC4)ncn3)cnc12` [Example 7-4, N-[(6-amino-8-methyl-1,5-naphthyridin-3-yl)methyl]-6-(cyclopropylamino)pyrimidine-4-carboxamide]: the figures for the IC50 (in test [1]; at PRMT5/MEP50 complex (setting [4]); on PRMT5/MEP50 complex (setting [5])) were 0.029 µM, 18.2 µM and 1.66 µM, respectively. The figures for the Kd in test [2] and in test [3] were 0.022 µM and 0.081 µM, respectively.
For `Nc1nc2cc[nH]c2cc1C(F)(F)F` [Example 9-3, 6-(trifluoromethyl)-1H-pyrrolo[3,2-b]pyridin-5-amine] the same measures were 20.3 µM, 431 µM, 210 µM, 11.7 µM and 29.2 µM.
For `Cc1cc2[nH]c(C(C#N)N3C(=O)c4ccccc4C3=O)cc2nc1N` (stereo not drawn) [Example 14-5, 2-(5-amino-6-methyl-1H-pyrrolo[3,2-b]pyridin-2-yl)-2-(1,3-dioxoisoindolin-2-yl)acetonitrile] the same measures were 0.037 µM, 245 µM, 4.26 µM, 0.203 µM and 0.727 µM.
On to `Cc1cc(N)nc2cc(CNC(=O)c3cc(O)ncn3)cnc12` [Example 7-3, N-[(6-amino-8-methyl-1,5-naphthyridin-3-yl)methyl]-6-hydroxy-pyrimidine-4-carboxamide], for which the IC50 in test [1] was 1.06 µM; at PRMT5/MEP50 complex (setting [4]), greater than 100 µM; on PRMT5/MEP50 complex (setting [5]) it was 60 µM. Further, the Kd in test [2] was 0.682 µM; in test [3], 12.5 µM.
As to `Nc1nc2cc(NC(=O)c3ccccc3)[nH]c2cc1Br` [Example 12-1, N-(5-amino-6-bromo-1H-pyrrolo [3,2-b]pyridin-2-yl)benzamide], the figures for the IC50 (in test [1]; on PRMT5/MEP50 complex (setting [4]); at PRMT5/MEP50 complex (setting [5])) were 1.41 µM, greater than 100 µM and greater than 100 µM, respectively. Moreover, the values for the Kd in test [2] and in test [3] were 2.54 µM and 6.29 µM, respectively.
Consider `Cc1cc(N)nc2cc(Cc3ccccc3Cl)cnc12` [Example 2-3, 7-(2-chlorobenzyl)-4-methyl-1,5-naphthyridin-2-amine], for which the IC50 in test [1] is 1.31 µM; at PRMT5/MEP50 complex (setting [4]) it was greater than 300 µM; at PRMT5/MEP50 complex (setting [5]) it was greater than 300 µM. Further, the results for the Kd in test [2] and in test [3] were 4.68 µM and 31.5 µM, respectively.
Take `Cc1cc2[nH]ccc2nc1N` [Example 9-1, 6-methyl-1H-pyrrolo[3,2-b]pyridin-5-amine]: the values for the IC50 (in test [1]; on PRMT5/MEP50 complex (setting [4]); at PRMT5/MEP50 complex (setting [5])) were 2.2 µM, 188 µM and 27.9 µM, respectively. For the same compound, the values for the Kd in test [2] and in test [3] were 0.456 µM and 3.36 µM, respectively.
For the compound `Cc1cc2[nH]c(CN3CCc4ccccc4C3=O)cc2nc1N` [Example 14-6, 2-[(5-amino-6-methyl-1H-pyrrolo[3,2-b]pyridin-2-yl)methyl]-3,4-dihydroisoquinolin-1-one], the IC50 in test [1] is 0.007 µM; on PRMT5/MEP50 complex (setting [4]), 43.2 µM; on PRMT5/MEP50 complex (setting [5]) it was 0.504 µM. For the same compound, the Kd in test [2] is 0.001 µM; in test [3] it was 0.006 µM.
In the case of `Cc1cc(N)nc2cc(Oc3cccnc3)cnc12` [Example 3-7, 4-methyl-7-(3-pyridyloxy)-1,5-paphthyridin-2-amine], the IC50 in test [1] worked out at 0.546 µM; on PRMT5/MEP50 complex (setting [4]), 351 µM; on PRMT5/MEP50 complex (setting [5]) it was 26.1 µM. This compound also gave a Kd in test [2] of 2.46 µM.
For the compound `Cc1cc(N)nc2cc(Cc3ccccc3F)cnc12` [Example 2-2, 7-(2-fluorobenzyl)-4-methyl-1,5-naphthyridin-2-amine], the IC50 in test [1] is 0.354 µM. Further, the figures for the Kd in test [2] and in test [3] were 5.28 µM and 39.1 µM, respectively.
`CC(=O)N1CCC(=O)n2c(cc3nc(N)c(C)cc32)C1` [Example 15-2, 11-acetyl-5-amino-4-methyl-1,6,11-triazatricyclo[7.5.0.0^2,7]tetradeca-2,4,6,8-tetraen-14-one]: the IC50 was 2.47 µM in test [1], greater than 300 µM on PRMT5/MEP50 complex (setting [4]) and 57.9 µM on PRMT5/MEP50 complex (setting [5]).
Consider `Cc1cc(N)nc2cc(Cc3cccnc3)cnc12` [Example 2-7, 4-methyl-7-(3-pyridylmethyl)-1,5-naphthyridin-2-amine], for which, in test [1], the IC50 came out at 0.581 µM. The figures for the Kd in test [2] and in test [3] were 0.232 µM and 1.22 µM, respectively.
`Cc1cc2[nH]c(CNC(=O)c3ccccc3)c(C#N)c2nc1N` [Example 15-6, N-((5-amino-3-cyano-6-methyl-1H-pyrrolo[3,2-b]pyridin-2-yl)methyl)benzamide]: the figures for the IC50 (in test [1]; at PRMT5/MEP50 complex (setting [4]); at PRMT5/MEP50 complex (setting [5])) were 2.64 µM, greater than 300 µM and 76.7 µM, respectively.
Regarding `Nc1ccc2[nH]c(NC(=O)c3ccccc3)cc2n1` [Example 12-3, N-(5-amino-1H-pyrrolo[3,2-b]pyridin-2-yl)benzamide], the IC50 was determined as 18.3 µM in test [1], 95.9 µM on PRMT5/MEP50 complex (setting [4]) and 97.7 µM at PRMT5/MEP50 complex (setting [5]).
As for `Cc1cc2[nH]c(NC(=O)c3ccccc3)cc2nc1N` [Example 12-2, N-(5-amino-6-methyl-1H-pyrrolo[3,2-b]pyridin-2-yl)benzamide], the IC50 is 5.46 µM in test [1], 60.2 µM at PRMT5/MEP50 complex (setting [4]) and 44.7 µM at PRMT5/MEP50 complex (setting [5]).
Turning to `Nc1ccc2c(n1)CN(c1cncc(Oc3ccccc3)c1)CC2` [Example 11-2, 7-(5-phenoxy-3-pyridyl)-6,8-dihydro-5H-1,7-naphthyridin-2-amine], the IC50 in test [1] was 0.073 µM; on PRMT5/MEP50 complex (setting [5]), 5.8 µM.
Turning to `CC(=O)N(C)Cc1cc2nc(N)c(C)cc2n1C(C)=O` [Example 15-8, N-((1-acetyl-5-amino-6-methyl-1H-pyrrolo[3,2-b]pyridin-2-yl)methyl)-N-methylacetamide], the IC50 in test [1] worked out at 1.01 µM. The Kd was found to be 0.043 µM in test [2] and 0.341 µM in test [3].
With `Cc1cc2[nH]c(N3CC(=O)NC3=O)cc2nc1N` [Example 13-7, 1-(5-amino-6-methyl-1H-pyrrolo[3,2-b]pyridin-2-yl)imidazolidine-2,4-dione], the IC50 in test [1] was 2.29 µM; on PRMT5/MEP50 complex (IC50 + 2 μM MTA, histone H4 peptide, presence of 2 μM MTA), greater than 300 µM; on PRMT5/MEP50 complex (setting [4]) it was greater than 300 µM.
